Results published in PubChem BioAssay AID272 (DTP/NCI, 2004).
Records with an inconclusive call do not appear.

Test system: Lewis lung carcinoma i.m., BDF1 mice, T/C %
Experiment: NCI In Vivo Anticancer Drug Screen. Data for tumor model Lewis Lung Carcinoma (intramuscular) in B6D2F1 (BDF1) mice
Outline: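 Tumour-bearing mice were dosed with compound, and either their survival or their tumour size was measured. Results were expressed relative to vehicle-treated controls as T/C.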

With `Cc1cc2nc(CBr)c(CBr)nc2cc1C` the T/C (endpoint: mean tumor weight (est.), dose: 0.75 mg/kg/injection, schedule: Q01DX011 (ip), vehicle: saline with Tween-80, higher = larger tumour) was 87 % of control, the T/C (endpoint: mean tumor weight (est.), dose: 1.5 mg/kg/injection, schedule: Q01DX011 (ip), vehicle: saline with Tween-80, higher = larger tumour) was 76 % of control and the T/C (endpoint: mean tumor weight (est.), dose: 3.0 mg/kg/injection, schedule: Q01DX011 (ip), vehicle: saline with Tween-80, higher = larger tumour) was 67 % of control. The T/C (endpoint: mean tumor weight (est.), dose: 6.0 mg/kg/injection, schedule: Q01DX011 (ip), vehicle: saline with Tween-80, higher = larger tumour) was 48 % of control, the T/C (endpoint: median survival time, dose: 0.75 mg/kg/injection, schedule: Q01DX011 (ip), vehicle: saline with Tween-80, higher = longer survival) was 100 % of control and the T/C (endpoint: median survival time, dose: 1.5 mg/kg/injection, schedule: Q01DX011 (ip), vehicle: saline with Tween-80, higher = longer survival) was 101 % of control. For the same molecule, the T/C (endpoint: median survival time, dose: 3.0 mg/kg/injection, schedule: Q01DX011 (ip), vehicle: saline with Tween-80, higher = longer survival) was 86 % of control and the T/C (endpoint: median survival time, dose: 6.0 mg/kg/injection, schedule: Q01DX011 (ip), vehicle: saline with Tween-80, higher = longer survival) was 107 % of control.

With `CCN(CC)CCN1C(=O)c2cccc3cccc(c23)C1=O` the T/C (endpoint: mean tumor weight (est.), dose: 27.5 mg/kg/injection, schedule: Q01DX011 (ip), vehicle: saline, higher = larger tumour) was 76 % of control, the T/C (endpoint: mean tumor weight (est.), dose: 55.0 mg/kg/injection, schedule: Q01DX011 (ip), vehicle: saline, higher = larger tumour) was 55 % of control and the T/C (endpoint: mean tumor weight (est.), dose: 110.0 mg/kg/injection, schedule: Q01DX011 (ip), vehicle: saline, higher = larger tumour) was 64 % of control.

In the case of `O=c1[nH]cc(F)c(=O)n1C1OC(CO)C(O)C1O` (centres undefined), the T/C (endpoint: mean tumor weight (est.), dose: 75.0 mg/kg/injection, schedule: Q01DX011 (ip), vehicle: saline, higher = larger tumour) is reported as 67 % of control, the T/C (endpoint: mean tumor weight (est.), dose: 150.0 mg/kg/injection, schedule: Q01DX011 (ip), vehicle: saline, higher = larger tumour) is reported as 99 % of control and the T/C (endpoint: mean tumor weight (est.), dose: 300.0 mg/kg/injection, schedule: Q01DX011 (ip), vehicle: saline, higher = larger tumour) is reported as 106 % of control. The T/C (endpoint: mean tumor weight (est.), dose: 600.0 mg/kg/injection, schedule: Q01DX011 (ip), vehicle: saline, higher = larger tumour) was 82 % of control, the T/C (endpoint: mean tumor weight (est.), dose: 1200.0 mg/kg/injection, schedule: Q01DX011 (ip), vehicle: saline, higher = larger tumour) was 84 % of control and the T/C (endpoint: median survival time, dose: 75.0 mg/kg/injection, schedule: Q01DX011 (ip), vehicle: saline, higher = longer survival) was 107 % of control. The T/C (endpoint: median survival time, dose: 600.0 mg/kg/injection, schedule: Q01DX011 (ip), vehicle: saline, higher = longer survival) was 98 % of control and the T/C (endpoint: median survival time, dose: 1200.0 mg/kg/injection, schedule: Q01DX011 (ip), vehicle: saline, higher = longer survival) was 107 % of control.

For `N=c1ccn2c(n1)OC1C(O)C(CO)OC12` (centres undefined), the T/C (endpoint: mean tumor weight, dose: 200.0 mg/kg/injection, schedule: Q01DX011 (ip), vehicle: water, higher = larger tumour) was 34 % of control, the T/C (endpoint: mean tumor weight, dose: 400.0 mg/kg/injection, schedule: Q01DX011 (ip), vehicle: water, higher = larger tumour) was 64 % of control and the T/C (endpoint: median survival time, dose: 200.0 mg/kg/injection, schedule: Q01DX011 (ip), vehicle: water, higher = longer survival) was 115 % of control. The T/C (endpoint: median survival time, dose: 400.0 mg/kg/injection, schedule: Q01DX011 (ip), vehicle: water, higher = longer survival) was 124 % of control.

In the case of `OCCNC1c2ccccc2-c2ccccc21`, the T/C (endpoint: mean tumor weight (est.), dose: 25.0 mg/kg/injection, schedule: Q01DX011 (ip), vehicle: saline with Tween-80, higher = larger tumour) is reported as 90 % of control, the T/C (endpoint: mean tumor weight (est.), dose: 50.0 mg/kg/injection, schedule: Q01DX011 (ip), vehicle: saline with Tween-80, higher = larger tumour) is reported as 91 % of control and the T/C (endpoint: mean tumor weight (est.), dose: 100.0 mg/kg/injection, schedule: Q01DX011 (ip), vehicle: saline with Tween-80, higher = larger tumour) is reported as 67 % of control. The T/C (endpoint: median survival time, dose: 50.0 mg/kg/injection, schedule: Q01DX011 (ip), vehicle: saline with Tween-80, higher = longer survival) was 112 % of control.

`Cc1cc(/C=C/c2cc[n+](C)c3ccccc23)c(O)c2ncccc12` was tested, and the T/C (endpoint: mean tumor weight, dose: 6.0 mg/kg/injection, schedule: Q01DX011 (ip), vehicle: saline, higher = larger tumour) was 76 % of control and the T/C (endpoint: median survival time, dose: 6.0 mg/kg/injection, schedule: Q01DX011 (ip), vehicle: saline, higher = longer survival) was 102 % of control.

`Clc1ccc2nc(CI)c(CI)nc2c1` was tested, and the T/C (endpoint: mean tumor weight (est.), dose: 3.12 mg/kg/injection, schedule: Q01DX011 (ip), vehicle: saline with Tween-80, higher = larger tumour) was 78 % of control, the T/C (endpoint: mean tumor weight (est.), dose: 6.25 mg/kg/injection, schedule: Q01DX011 (ip), vehicle: saline with Tween-80, higher = larger tumour) was 82 % of control and the T/C (endpoint: mean tumor weight (est.), dose: 12.5 mg/kg/injection, schedule: Q01DX011 (ip), vehicle: saline with Tween-80, higher = larger tumour) was 89 % of control. For the same molecule, the T/C (endpoint: median survival time, dose: 3.12 mg/kg/injection, schedule: Q01DX011 (ip), vehicle: saline with Tween-80, higher = longer survival) was 94 % of control, the T/C (endpoint: median survival time, dose: 6.25 mg/kg/injection, schedule: Q01DX011 (ip), vehicle: saline with Tween-80, higher = longer survival) was 98 % of control and the T/C (endpoint: median survival time, dose: 12.5 mg/kg/injection, schedule: Q01DX011 (ip), vehicle: saline with Tween-80, higher = longer survival) was 88 % of control.

With `CCOC(=O)C(CS)NC(=O)CCNC(C)=O` (centres undefined) the T/C (endpoint: median survival time, dose: 4.0 mg/kg/injection, schedule: Q01DX009 (ip), vehicle: water, higher = longer survival) was 109 % of control, the T/C (endpoint: median survival time, dose: 8.0 mg/kg/injection, schedule: Q01DX009 (ip), vehicle: water, higher = longer survival) was 119 % of control and the T/C (endpoint: median survival time, dose: 32.0 mg/kg/injection, schedule: Q01DX009 (ip), vehicle: water, higher = longer survival) was 113 % of control. The T/C (endpoint: median survival time, dose: 64.0 mg/kg/injection, schedule: Q01DX009 (ip), vehicle: water, higher = longer survival) was 124 % of control.
